Test results reported in patent US10881644B2, “Treatment of asthma and chronic obstructive pulmonary disease with anti-proliferate and anti-inflammatory drugs” (Lutonix, Inc., priority 2006, dated 2021).

Tests used:
[1] = Stability under ethylene oxide sterilization, heating and aging with paclitaxel; type: physicochemical; details: formulated with paclitaxel
[2] = Drug coated PTCA balloon catheter in pig blood vessels: residual drug on balloon and drug content in tissue by tissue extraction and HPLC; details: after only 0.2-2 minutes of deployment; substance used as additive in the drug coating
Text: 6 PTCA balloon catheters (3.5 and 3.0 mm in diameter and 20 mm in length) were inflated at 1-3 atm. […] The sufficient amount of drug on the balloon (3 microgram per square mm) was obtained. The inflated balloon was folded, and then dried. The coated folded balloon was then rewrapped and sterilized for animal testing.
The coated PTCA balloon catheter was inserted into target site in the blood vessels (LAD, LCX and RCA) in the 25-45 ib pig was inflated to 12 atm. […] The drug was delivered into the target tissue in 30-60 seconds. The balloon catheter was then deflated and was withdrawn from the animal body. The target blood vessel was harvested at 0.25-24 hours after inflation. The drug content in the target tissue and the residual drug remained on the balloon were analyzed by tissue extraction and HPLC. In some of the animal tests the stent was crimped on the drug coated balloon catheters prior to deployment.
All data is the average of five or six experimental data points.

[3] = with the addition of BSA; cited from earlier work
albumin = details: cited from earlier work
[4] = 1 minute after intravenous injection in rats; cited from earlier work

O=C1O[C@H]([C@@H](O)CO)C(O)=C1O [ascorbic acid]
stability under ethylene oxide sterilization, heating, and aging process [1]: not stable

O=C(O)c1ccccc1 [benzoic acid]
stability under ethylene oxide sterilization, heating, and aging process [1]: not stable

OCCNCCO [diethanolamine]
stability under ethylene oxide sterilization, heating, and aging process [1]: not stable

O=C(O)c1cc(O)ccc1O [gentisic acid]
stability under ethylene oxide sterilization, heating, and aging process [1]: not stable

O=C1O[C@H](CO)[C@@H](O)[C@H](O)[C@H]1O [gluconolactone]
drug absorption by tissue / drug levels in tissue [2]: unexpectedly high

CC(=O)O[C@H]1C(=O)[C@@]2(C)[C@H]([C@H](OC(=O)c3ccccc3)[C@]3(O)C[C@H](OC(=O)[C@H](O)[C@@H](NC(=O)c4ccccc4)c4ccccc4)C(C)=C1C3(C)C)[C@]1(OC(C)=O)CO[C@@H]1C[C@@H]2O [paclitaxel]
increase of solubility in PBS [3]: over 20 fold

CO[C@H]1C[C@@H]2CC[C@@H](C)[C@@](O)(O2)C(=O)C(=O)N2CCCC[C@H]2C(=O)O[C@H]([C@H](C)C[C@@H]2CC[C@@H](O)[C@H](OC)C2)CC(=O)[C@H](C)/C=C(\C)[C@@H](O)[C@@H](OC)C(=O)[C@H](C)C[C@H](C)/C=C/C=C/C=C/1C [rapamycin]
protein bound (albumin): 92%

O=C1O[C@H](CO)[C@@H](O)[C@H]1O [ribonic acid lactone]
drug absorption by tissue / drug levels in tissue [2]: unexpectedly high

I-iothalamate
share of myocardial content found in the extravascular space [4]: approximately 80%
